Tested on: C6 rat glioma cells
Experiment: Induction of cell cycle arrest in C6 cells with aphidicolin
Assay type: cell-based
Conditions: 0.3 μM aphidicolin, 5 days
Protocol: SH-SY5Y cells were grown at 37° C. in RPMI 1640 medium (GIBCO BRL, Gaithersburg, Md.) supplemented with 10% fetal bovine serum (Sigma Chemicals, St. Louis, Mo.) and 100 μg/ml of gentamicin. For differentiation studies, cells were plated (1.5×10^5 to 5×10^5 cells/dish) in 35-mm Primaria dishes (Falcon, Franklin Lakes, N.J.). One hundred ng/ml NGF (2.5 S; Bioproducts for Science, Indianapolis, Ind.) and/or 0.3 μM aphidicolin (Sigma Chemicals, St. Louis, Mo.) were added every 2-3 days. Cell proliferation was assessed by BrdU labeling, as described by LoPresti et al. (Cell Growth Diff. (1992) 3:627-635).
0.3 μM aphidicolin (Sigma, St. Louis Mo.) was added to logarithmically growing C6 rat glioma cells (ATCC, CCL 107, Rockville, Md.) in MEM medium supplemented with 10% fetal bovine serum (Sigma, St. Louis, Mo.). After 5 days incubation, growth arrested cells were removed with trypsin and 2.0×10^4 cells were seeded on polyornithine coated coverslips (polyornithine hydrobromide, Sigma) containing aphidicolin supplemented media for another five days in 24-well plates. Coverslips were then fixed in either methanol (10 minutes at -20° C.) or 4% paraformaldehyde (20 minutes at room temperature) for immunohistochemical analysis.
Less than 5% of cells were stained to any extent with antibodies to GFAP, medium and heavy chain neurofilament (SMI-312) or MAP-2. […]

C[C@@]1(CO)[C@H](O)CC[C@@]2(C)[C@H]1CC[C@H]1C[C@@H]3C[C@@]12CC[C@]3(O)CO [aphidicolin]
cells extending branched complex neurite-like processes: 48% | BrDU labeling (proliferation) (MEM + 10% FBS, untreated cells 52%): 7.2%
